Among the test systems are SNB-19; M14; 786-0; SF-295; HCT-15; LOX IMVI; SK-MEL-2; SW-620; KM12; OVCAR-4; TK-10; K562; HOP-92; SNB-75; SK-OV-3; SR.
Holding throughout (experiment): growth of human tumour cells (NCI), 48 h

Data on 14 molecules can be found in ChEMBL document CHEMBL1201862, “PubChem BioAssay data set” (2004).

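Cells were grown in 96-well plates and exposed to each compound for 48 hours at five concentrations; endpoints were interpolated linearly between bracketing concentrations, or set to the highest concentration if not reached. Here, GI50 denotes the concentration required for 50% inhibition of growth.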 Calls of active or inactive are those of the source. Cut-off read from the data, not from the text of the source: active = GI50 up to about 1.1 µM and inactive = higher.

Regarding `CN(C)c1ccc(/C=C2\N=C(c3ccc(N)cc3)OC2=O)cc1`, the GI50 was > 100 µM (inactive) in the assay with SNB-19; > 100 µM (inactive) in the assay with M14; > 100 µM (inactive) in the assay on 786-0; > 100 µM (inactive) in the assay on SF-295; more than 100 µM with HCT-15; > 100 µM (inactive) in the assay on LOX IMVI. The GI50 with SK-MEL-2 is > 100 µM (inactive); with SW-620 it was > 100 µM (inactive); with KM12 it was > 100 µM (inactive); with OVCAR-4, > 100 µM (inactive); in the assay on TK-10 it was > 100 µM (inactive); in the assay with K562, 38.8 µM (inactive). The GI50 in the assay on HOP-92, in the assay on SNB-75 and in the assay on SK-OV-3 was > 100 µM (inactive) in each case.

`CCOC(=O)NC1C2CC(=O)C(O2)C1OCc1ccccc1` (stereo not drawn): the GI50 in the assay on M14 was > 100 µM (inactive); in the assay on 786-0 it was > 100 µM (inactive); in the assay on SF-295, > 100 µM (inactive); in the assay on HCT-15, more than 100 µM; with LOX IMVI it was > 100 µM (inactive); with SK-MEL-2, > 100 µM (inactive). Also, the GI50 with SW-620, in the assay on KM12, in the assay with OVCAR-4, in the assay on K562, in the assay with HOP-92 and in the assay on SNB-75 was > 100 µM (inactive) throughout. The GI50 in the assay with SK-OV-3 is > 100 µM (inactive).

`COC(=O)C(CC(=O)c1ccccc1)c1ccccc1NC(C)=O` (stereo not drawn): the GI50 was > 100 µM (inactive) in the assay with SNB-19; > 100 µM (inactive) in the assay with M14; > 100 µM (inactive) in the assay on 786-0; > 100 µM (inactive) with SF-295; more than 100 µM with HCT-15; > 100 µM (inactive) in the assay on LOX IMVI. Besides, the GI50 in the assay on SW-620, in the assay with KM12, in the assay on OVCAR-4, in the assay with SR, in the assay with TK-10 and in the assay on K562 was > 100 µM (inactive) each time. Moreover, the GI50 is > 100 µM (inactive) in the assay on HOP-92, 87.1 µM (inactive) in the assay with SNB-75 and > 100 µM (inactive) in the assay on SK-OV-3.

For `N#CC(C(=O)CCC(=O)Nc1ccc(Cl)cc1)c1ccccc1Cl` (stereo not drawn), the GI50 in the assay with SNB-19 is > 100 µM (inactive); in the assay with M14 it was 47.8 µM (inactive); in the assay with 786-0, > 100 µM (inactive); in the assay on SF-295, > 100 µM (inactive); in the assay with HCT-15 it was 21 µM; in the assay on SK-MEL-2, 51.6 µM (inactive). In addition, the GI50 in the assay on SW-620 was > 100 µM (inactive); with KM12, 43.1 µM (inactive); with OVCAR-4 it was > 100 µM (inactive); in the assay with TK-10, > 100 µM (inactive); in the assay on K562, 18.4 µM (inactive); in the assay with HOP-92, > 100 µM (inactive). Further, the GI50 with SNB-75 was 45.9 µM (inactive); in the assay on SK-OV-3, > 100 µM (inactive).

As to `CCOC(=O)CNC(=O)c1nc[nH]c1/N=N/N(C)C`, the GI50 in the assay with SNB-19 is > 100 µM (inactive); with M14, > 100 µM (inactive); with 786-0, > 100 µM (inactive); in the assay with SF-295 it was > 100 µM (inactive); with HCT-15, more than 100 µM; with LOX IMVI, > 100 µM (inactive). The GI50 with SK-MEL-2, with SW-620, in the assay with KM12, in the assay on OVCAR-4, with SR and in the assay on TK-10 was > 100 µM (inactive) in each case. Besides, the GI50 in the assay on K562, in the assay with SNB-75 and with SK-OV-3 was > 100 µM (inactive) each time.

With `CCN(CC)CCC(=O)/C=C/c1ccc(C)cc1`, the GI50 in the assay on SNB-19 was 19.3 µM (inactive); in the assay with M14 it was 13.7 µM (inactive); in the assay on 786-0, 11.9 µM (inactive); with SF-295, 18.1 µM (inactive); in the assay on HCT-15 it was 12.5 µM; in the assay on LOX IMVI, 4.53 µM (inactive). For the same molecule, the GI50 with SW-620 is 4.69 µM (inactive); in the assay on KM12, 3.18 µM (inactive); in the assay with OVCAR-4, 18.4 µM (inactive); with SR, 6.78 µM (inactive); with TK-10, 6.85 µM (inactive); in the assay with K562 it was 19.5 µM (inactive). Also, the GI50 is 19.2 µM (inactive) with HOP-92, 15.6 µM (inactive) in the assay with SNB-75 and 20.7 µM (inactive) with SK-OV-3.

With `C[Si](C)(C)CC(N)=O`, the GI50 is > 100 µM (inactive) in the assay on SNB-19; > 100 µM (inactive) in the assay on M14; > 100 µM (inactive) in the assay on 786-0; > 100 µM (inactive) in the assay on SF-295; more than 100 µM in the assay with HCT-15; > 100 µM (inactive) in the assay with LOX IMVI. In addition, the GI50 in the assay on SK-MEL-2, in the assay on SW-620, with KM12, in the assay with OVCAR-4, with TK-10 and with K562 was > 100 µM (inactive) in each case. Besides, the GI50 in the assay with HOP-92, with SNB-75 and in the assay on SK-OV-3 was > 100 µM (inactive) in each case.

Consider `C(=C\c1cc(CCc2nc3ccccc3[nH]2)n[nH]1)/c1ccccc1`, for which the GI50 is > 100 µM (inactive) in the assay on SNB-19; > 100 µM (inactive) with M14; > 100 µM (inactive) with 786-0; > 100 µM (inactive) in the assay on SF-295; more than 100 µM in the assay on HCT-15; > 100 µM (inactive) with LOX IMVI. Further, the GI50 in the assay with SW-620, in the assay with KM12, in the assay with OVCAR-4, in the assay on SR, in the assay with TK-10 and with K562 was > 100 µM (inactive) each time. For the same molecule, the GI50 in the assay on HOP-92, with SNB-75 and in the assay on SK-OV-3 was > 100 µM (inactive) in each case.

With `CC(=O)NNc1nc(C)c(C(=O)/C=C/c2ccc(NC(C)=O)cc2)s1`, the GI50 in the assay on SNB-19 was > 100 µM (inactive); with 786-0 it was > 100 µM (inactive); with SF-295 it was > 100 µM (inactive); in the assay with HCT-15, more than 100 µM; with LOX IMVI, > 100 µM (inactive); in the assay on SK-MEL-2, > 100 µM (inactive). Besides, the GI50 in the assay on SW-620, in the assay on KM12, in the assay with TK-10, in the assay on K562, in the assay with HOP-92 and with SNB-75 was > 100 µM (inactive) each time. For the same molecule, in the assay with SK-OV-3, the GI50 was > 100 µM (inactive).

For the molecule `COc1ccc(OC)c2c(C(=O)O)c(Cc3ccccc3)ccc12`, the GI50 in the assay with SNB-19 is > 100 µM (inactive); in the assay on M14 it was > 100 µM (inactive); with 786-0, > 100 µM (inactive); with SF-295 it was > 100 µM (inactive); with HCT-15 it was more than 100 µM; in the assay with LOX IMVI it was > 100 µM (inactive). Besides, the GI50 in the assay with SK-MEL-2, with SW-620, with KM12, with OVCAR-4, in the assay on SR and in the assay with TK-10 was > 100 µM (inactive) in each case. The GI50 in the assay on K562, with SNB-75 and in the assay with SK-OV-3 was > 100 µM (inactive) in each case.

As to `CC1(C)OC2COC3(CNO)OC(C)(C)OC3C2O1` (stereo not drawn), the GI50 was > 100 µM (inactive) in the assay on SNB-19; > 100 µM (inactive) with M14; > 100 µM (inactive) in the assay with 786-0; > 100 µM (inactive) in the assay with SF-295; more than 100 µM with HCT-15; > 100 µM (inactive) in the assay with LOX IMVI. The GI50 in the assay on SK-MEL-2, in the assay on SW-620, in the assay on KM12, in the assay with OVCAR-4, in the assay on TK-10 and in the assay with K562 was > 100 µM (inactive) throughout. The values for the GI50 in the assay on HOP-92, in the assay with SNB-75 and with SK-OV-3 were 65.8 µM (inactive), > 100 µM (inactive) and > 100 µM (inactive), respectively.

For `[O-][S+]1c2ccccc2NC(c2ccc3ccccc3c2)CC1c1ccccc1` (stereo not drawn), the GI50 is 30.6 µM (inactive) with SNB-19; 40.5 µM (inactive) with M14; 17.3 µM (inactive) in the assay with 786-0; 19.1 µM (inactive) in the assay with SF-295; 22.3 µM in the assay on HCT-15; 17.9 µM (inactive) in the assay on LOX IMVI. The GI50 with SK-MEL-2 was 92.7 µM (inactive); in the assay on SW-620, 20 µM (inactive); in the assay with KM12, 16.7 µM (inactive); in the assay with OVCAR-4 it was 23.9 µM (inactive); in the assay on TK-10, 35.4 µM (inactive); in the assay with K562, 16 µM (inactive). For the same molecule, the GI50 was 24.8 µM (inactive) with SNB-75 and 99.1 µM (inactive) in the assay with SK-OV-3.

Consider `COc1nc2c(nc(N)n2C2OC(CO)C(O)C(O)C2O)c(=O)[nH]1` (stereo not drawn), for which the GI50 in the assay with SNB-19, with M14, with 786-0, with SF-295, with LOX IMVI and in the assay with SW-620 was > 100 µM (inactive) in each case. Moreover, the GI50 with KM12, in the assay with OVCAR-4, in the assay on SR, with TK-10, in the assay with K562 and in the assay on HOP-92 was > 100 µM (inactive) throughout. In addition, the GI50 in the assay with SNB-75 and in the assay on SK-OV-3 was > 100 µM (inactive) throughout.

As for `CCCC(=O)c1c(NOC2OCC(OC(C)=O)C(OC(C)=O)C2OC(C)=O)nc(OC)n(C)c1=O` (stereo not drawn), the GI50 in the assay on SNB-19 is > 100 µM (inactive); with M14 it was > 100 µM (inactive); with 786-0, > 100 µM (inactive); in the assay with SF-295 it was > 100 µM (inactive); in the assay with HCT-15, more than 100 µM; in the assay with LOX IMVI it was > 100 µM (inactive). Moreover, the GI50 in the assay with SW-620 is > 100 µM (inactive); in the assay with KM12, > 100 µM (inactive); with OVCAR-4, > 100 µM (inactive); in the assay with SR, > 100 µM (inactive); with TK-10, > 100 µM (inactive); in the assay on K562, 17.4 µM (inactive). Besides, the GI50 in the assay with HOP-92, in the assay with SNB-75 and with SK-OV-3 was > 100 µM (inactive) each time.
